Consider nine compounds from PubChem BioAssay (NCI).

Some test systems named below: SK-OV-3 ovarian; SR leukemia; TK-10 renal; SF-539 CNS; NCI-H23 lung; HCT-116 colon; SF-268 CNS; SK-MEL-5 melanoma; HL-60(TB) leukemia; MALME-3M melanoma.
Assay in all cases: NCI anticancer screen, dose series, 48 h

Molecules are shown by their SMILES. Values joined by “and” are separate entries in the source; they are usually repeats but may differ in a detail not shown here. Equal entries are not always repeated.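 A five-concentration, 48-hour dose response in 96-well plates underlies each endpoint, interpolated linearly between surrounding concentrations. At the GI50, growth is halved. TGI is the concentration that stops growth completely.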

For `CS(=O)(=O)N(c1cc(-c2ccc3ncnc(Nc4cccc(Cl)c4)c3c2)cnc1Cl)S(C)(=O)=O`, the GI50 is 0.316 µM with SK-OV-3 ovarian; 0.696 µM in the experiment on SR leukemia; 0.145 µM in the experiment with TK-10 renal; 0.533 µM in the experiment with SF-539 CNS; 0.417 µM in the experiment with NCI-H23 lung; 0.622 µM in the experiment on HCT-116 colon. Moreover, the results for the GI50 with SF-268 CNS, in the experiment with SK-MEL-5 melanoma and with HL-60(TB) leukemia were 0.49 µM, 0.306 µM and 0.284 µM, respectively. Besides, the TGI in the experiment on SK-OV-3 ovarian was 1.81 µM; in the experiment with SR leukemia it was 6.68 µM; in the experiment on TK-10 renal, 0.985 µM; in the experiment on SF-539 CNS, 4.33 µM; with NCI-H23 lung, 3.72 µM; with HCT-116 colon, 3.74 µM. Further, the results for the TGI in the experiment on SF-268 CNS, in the experiment with SK-MEL-5 melanoma and with HL-60(TB) leukemia were 12.7 µM, 1.41 µM and 6.48 µM, respectively.

`CN(C)CC/C(=N\Nc1ccc(Cl)cc1Cl)c1ccccc1`: the TGI came to 24.8 µM in the experiment on SK-OV-3 ovarian; 32.3 µM in the experiment with SR leukemia; 28.3 µM in the experiment with TK-10 renal; 35 µM with SF-539 CNS; 31.6 µM in the experiment with NCI-H23 lung; 27.9 µM in the experiment with HCT-116 colon. Also, the values for the TGI with MALME-3M melanoma, in the experiment with SK-MEL-5 melanoma and in the experiment with HL-60(TB) leukemia were 49.7 µM, 27.9 µM and 21.6 µM, respectively.

On to `CC1(C)C(=O)/C(=C\c2cccnc2)C[C@]2(C)[C@H]3CC[C@@H]4[C@@H](C(=O)/C=C/c5ccncc5)CC[C@@]4(C)[C@]3(C)CC[C@@H]12`, for which the GI50 is 4.86 µM with SK-OV-3 ovarian; 1.68 µM with SR leukemia; 2.7 µM in the experiment on TK-10 renal; 1.76 µM with SF-539 CNS; 1.62 µM with HCT-116 colon; 1.78 µM in the experiment with MALME-3M melanoma. In addition, the GI50 in the experiment with SF-268 CNS is 2.41 µM; with SK-MEL-5 melanoma, 1.67 µM; in the experiment on HL-60(TB) leukemia, 1.78 µM. Moreover, the TGI was 18.9 µM in the experiment on SK-OV-3 ovarian; 9.81 µM in the experiment with SR leukemia; 5.29 µM in the experiment with TK-10 renal; 3.25 µM with SF-539 CNS; 3.16 µM with HCT-116 colon; 3.43 µM in the experiment on MALME-3M melanoma. In addition, the TGI in the experiment with SF-268 CNS amounted to 6.53 µM; with SK-MEL-5 melanoma, 3.05 µM; with HL-60(TB) leukemia, 6.35 µM.

In the case of `Oc1c(CN2CCN(c3ccccc3)CC2)cc(Br)c2cccnc12`, the TGI in the experiment on SK-OV-3 ovarian is 26.8 µM; in the experiment on SR leukemia, 2.25 µM; in the experiment with TK-10 renal it was above 100 µM; in the experiment on SF-539 CNS, above 28.6 µM; in the experiment on NCI-H23 lung, above 100 µM; in the experiment on HCT-116 colon it was above 28.4 µM. In addition, the values for the TGI in the experiment on MALME-3M melanoma, with SF-268 CNS and in the experiment with HL-60(TB) leukemia were 42.2 µM, above 71 µM and 3.81 µM, respectively.

Turning to `CCC[CH2][Sn]1([CH2]CCC)[O]CC(C)[O]1` (stereo not given), the GI50 in the experiment on SK-OV-3 ovarian is 3.56 µM; with SR leukemia, 0.515 µM; with TK-10 renal it was 1.26 µM; in the experiment on SF-539 CNS it was 1.46 µM; with NCI-H23 lung, 0.749 µM; in the experiment on HCT-116 colon, 1.78 µM. Also, the results for the GI50 in the experiment with MALME-3M melanoma, in the experiment on SK-MEL-5 melanoma and in the experiment with HL-60(TB) leukemia were 0.544 µM, 1.47 µM and 0.661 µM, respectively. Further, the TGI in the experiment with SK-OV-3 ovarian turned out to be 10.4 µM; in the experiment on SR leukemia, 2.27 µM; with TK-10 renal, 2.56 µM; in the experiment with SF-539 CNS it was 3.46 µM; in the experiment with NCI-H23 lung, 2.08 µM; with HCT-116 colon, 3.43 µM. The TGI came out at 2.22 µM in the experiment on MALME-3M melanoma, 3.26 µM in the experiment on SK-MEL-5 melanoma and 2.62 µM in the experiment on HL-60(TB) leukemia.

As to `O=C(/C=C\c1cccc2ccccc12)c1cccc2ccccc12`, the GI50 with SR leukemia was 3.95 µM; in the experiment on NCI-H23 lung it was 2.09 µM; in the experiment on HCT-116 colon, 3.36 µM; in the experiment with SF-268 CNS it was 4.74 µM; with HL-60(TB) leukemia, 2.9 µM. Further, the TGI is above 100 µM in the experiment with SR leukemia; 28 µM in the experiment with SF-539 CNS; 8.96 µM with NCI-H23 lung; 13.4 µM with HCT-116 colon; 36.1 µM with MALME-3M melanoma; 22.1 µM in the experiment with SF-268 CNS. The TGI in the experiment with SK-MEL-5 melanoma was 27.1 µM; in the experiment on HL-60(TB) leukemia, 9.29 µM and 25.6 µM.

With `CC1(C)N=C(c2ccccn2)C(c2ccccn2)=NC1(C)C`, the TGI in the experiment on SR leukemia, with SF-539 CNS, in the experiment with HCT-116 colon, in the experiment with MALME-3M melanoma, in the experiment with SF-268 CNS and with SK-MEL-5 melanoma was above 100 µM each time. For the same compound, the TGI in the experiment on HL-60(TB) leukemia was above 100 µM.

Take `CC(C)(C)c1ccc(NS(=O)(=O)c2ccc3nc(NC(=O)c4cnccn4)[nH]c3c2)cc1`: the GI50 in the experiment with SR leukemia was 0.68 µM; in the experiment on TK-10 renal, 8.84 µM; in the experiment with SF-539 CNS, 1.95 µM; in the experiment on NCI-H23 lung it was 3.19 µM; in the experiment with HCT-116 colon, 3.17 µM; in the experiment with MALME-3M melanoma it was 1.06 µM. Also, the GI50 with SF-268 CNS is 4.29 µM; with SK-MEL-5 melanoma it was 1.07 µM; with HL-60(TB) leukemia, 3.67 µM. Moreover, the TGI is above 100 µM with SR leukemia; 23.4 µM in the experiment with TK-10 renal; 4.96 µM with SF-539 CNS; 15.4 µM in the experiment with NCI-H23 lung; 19.2 µM in the experiment with HCT-116 colon; 13.1 µM with MALME-3M melanoma. Moreover, the TGI in the experiment with SF-268 CNS came to 19.2 µM; in the experiment with SK-MEL-5 melanoma, 6.01 µM; in the experiment on HL-60(TB) leukemia, 15.7 µM.

`N#CC1C=Cc2c(ccc3ccccc23)N1C(=O)c1ccccc1` (stereo not given): the GI50 is 0.311 µM in the experiment with SK-OV-3 ovarian; 0.1 µM with SR leukemia; 3.78 µM in the experiment with TK-10 renal; 0.238 µM in the experiment with SF-539 CNS; 0.433 µM with NCI-H23 lung; 0.0637 µM with HCT-116 colon. The GI50 in the experiment with SF-268 CNS is 1.05 µM; with SK-MEL-5 melanoma it was 0.132 µM; in the experiment with HL-60(TB) leukemia it was 0.171 µM. The TGI with SK-OV-3 ovarian is 29.7 µM; in the experiment on TK-10 renal, above 65.8 µM; in the experiment on NCI-H23 lung, above 100 µM; in the experiment with HCT-116 colon it was above 100 µM; in the experiment with SF-268 CNS, above 100 µM; with SK-MEL-5 melanoma, above 42.5 µM.
